Experimental data reported in patent US20190030009A1, “COMPOUNDS AND COMPOSITIONS FOR THE TREATMENT OF CRYPTOSPORIDIOSIS” (Novartis AG, priority 2016, published 2019).

Molecular target: C. parvum PI(4)K (Cryptosporidium parvum, UniProt Q5CVD3)
Test: CpPI(4)K enzymatic assay (Transcreener ADP2 FP)
Assay type: biochemical
Source text: The full-length coding sequence of C. parvum PI(4)K (cgd8_4500, 1114 amino acids) was codon-optimized for baculovirus expression, synthesized and cloned into pFastBac-HTb (Invitrogen 10584-027) in frame with the amino-terminal polyhistidine tag using the BamHI and Hindlll restriction sites. Recombinant pFastBacHTb-CpPI(4)K bacmid clones were generated by site-specific transposition in E. coli DH10Bac (Invitrogen 10361-012). The bacmid sequence was confirmed by direct DNA sequencing to confirm a lack of mutations across the whole gene. The subsequent steps for bacmid isolation, transfection and selection of the recombinant viruses were performed according to the manufacturer's protocol (Bac-to-Bac system #10359, Invitrogen).
SF9 cells, cultured in SF-900 III serum-free medium, were transfected with recombinant baculovirus at 1/200 (v/v) and incubated at 27° C. for 72 h. The pellets were collected after centrifugation and re-suspended in cell lysis buffer (20 mM Tris-HCl, pH 7.5, 300 mM NaCl, 1 mM DTT, 20 mM imidazole, 0.01% Triton X-100 and 1× complete protease inhibitor cocktail without EDTA (Roche Diagnostics 04693116001)). The cell suspension was lysed by sonication and the clarified supernatant was loaded onto a 1 ml HisTrap affinity column (GE Healthcare) pre-equilibrated with buffer A (20 mM Tris-HCl, pH 7.5, 300 mM NaCl, 1 mM DTT, 20 mM Imidazole, and 1× complete protease inhibitor cocktail without EDTA). The column was washed with buffer B (buffer A containing 45 mM imidazole) and the bound protein of interest was eluted with buffer C (buffer A with 90 mM imidazole). The fractions containing CpPI(4)K were pooled, concentrated using Amicon Ultra-15 and purified by a gel-filtration column (Hi-Load 26/60 Superdex 200, GE Healthcare) equilibrated with 20 mM Tris, pH 7.5, 300 mM NaCl, 1 mM DTT and 1× protease inhibitor cocktail without EDTA. The concentrations of the purified protein (Mw 132.39 kda) was determined by using the protein molar extinction coefficient (ε280 nm=133,810 M^−1 cm^−1). Aliquots were flash frozen in liquid nitrogen and immediately stored at −80° C.
The CpPI(4)K enzymatic assay was performed as described earlier with a some modifications (McNamara et al., 2013). Briefly, L-α-phosphatidylinositol (Avanti Polar Lipid 840046), dissolved in 3% n-octylglucoside (Roche Diagnostics 10634425001), was used as the lipid substrate for the PI(4)K activity assay. CpPI(4)K was assayed using Transcreener ADP2 FP detection kit (BellBrook 3010) in a black, solid 384-well plate (Corning 3575). The final assay volume was 10 μl and contained 3 nM of the respective CpPI(4)K construct in 10 mM Tris, pH 7.5, 1 mM DTT, 3 μM ATP, 5 mM Mn2+, 0.05% Triton X-100 and 10 μM phosphatidylinositol/octylglucoside. The enzyme reaction was performed for 50 minutes at room temperature and was stopped by adding 10 μl of detection mix containing 1× stop buffer (50 mM HEPES, pH7.5, 400 mM NaCl, 20 mM EDTA, and 0.02% Brij-35), 2 nM AMP Alexa Fluor 633 tracer, and 20 μg ml^−1 ADP antibody. Fluorescence polarization measurements were performed on the Infinite M1000 plate reader (Tecan) with λex=635 nm and λem=680 nm (20-nm bandwidth). IC50 values were calculated using Graphpad Prism software.
The inhibitory concentration (IC50) of selected compounds on the C. parvPI(4)K activity is provided in the third column [Cp_PI4K_enz IC50 (μM)] of Table II.

Sequence of C. parvum PI(4)K (Q5CVD3 entry or part of it): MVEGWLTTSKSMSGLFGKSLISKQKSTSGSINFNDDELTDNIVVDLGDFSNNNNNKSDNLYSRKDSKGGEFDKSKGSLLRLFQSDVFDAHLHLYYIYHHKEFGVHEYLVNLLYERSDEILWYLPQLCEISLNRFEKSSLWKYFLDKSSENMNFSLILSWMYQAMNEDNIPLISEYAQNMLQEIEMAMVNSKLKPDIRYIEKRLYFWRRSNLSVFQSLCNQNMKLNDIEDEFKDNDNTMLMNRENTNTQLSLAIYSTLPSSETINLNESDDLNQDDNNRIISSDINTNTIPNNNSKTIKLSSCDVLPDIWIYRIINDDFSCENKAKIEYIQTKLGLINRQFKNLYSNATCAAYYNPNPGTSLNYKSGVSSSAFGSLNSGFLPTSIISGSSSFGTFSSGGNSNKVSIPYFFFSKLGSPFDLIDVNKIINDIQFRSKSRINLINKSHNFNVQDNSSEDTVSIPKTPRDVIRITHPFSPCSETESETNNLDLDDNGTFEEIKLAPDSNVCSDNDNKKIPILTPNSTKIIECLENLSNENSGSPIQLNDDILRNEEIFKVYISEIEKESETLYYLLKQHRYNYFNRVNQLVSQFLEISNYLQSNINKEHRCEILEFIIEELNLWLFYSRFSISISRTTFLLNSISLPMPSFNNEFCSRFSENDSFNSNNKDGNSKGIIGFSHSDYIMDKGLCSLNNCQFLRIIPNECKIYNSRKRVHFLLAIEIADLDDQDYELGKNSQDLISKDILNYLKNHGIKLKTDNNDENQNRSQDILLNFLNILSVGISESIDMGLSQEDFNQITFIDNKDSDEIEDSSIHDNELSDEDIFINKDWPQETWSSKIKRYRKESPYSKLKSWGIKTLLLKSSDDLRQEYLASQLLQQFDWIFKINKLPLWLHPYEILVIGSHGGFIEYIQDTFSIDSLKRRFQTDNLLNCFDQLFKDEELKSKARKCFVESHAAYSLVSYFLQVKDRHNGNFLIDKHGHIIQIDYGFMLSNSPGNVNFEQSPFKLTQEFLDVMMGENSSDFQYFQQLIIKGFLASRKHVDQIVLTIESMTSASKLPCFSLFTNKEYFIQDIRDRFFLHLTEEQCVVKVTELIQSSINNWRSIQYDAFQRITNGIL

Q: Which IC50 does the source give for `CNC(=O)c1ccc(-c2cnn3ccc(N(C)C(=O)c4ccc(C#N)cn4)cc23)cc1` [Example 94] here?
A: The IC50 was 117 nM.

Q: `CCNC(=O)c1ccc(-c2cnn3ccc(C(=O)N(c4ccc(C#N)cn4)C4CC4)cc23)cc1` [Example 127] was tested. Which IC50 did it give?
A: The IC50 was 3 nM.

Q: Which IC50 does the source give for `CCN(C(=O)c1ccn2ncc(-c3ccc(C(=O)NC)cc3)c2c1)c1ccc(C#N)cn1` [Example 90] here?
A: Its IC50 is 8 nM.

Q: Which IC50 does the source give for `CCN(C(=O)c1ccn2ncc(-c3ccc(C(=O)NC)nc3)c2c1)c1ccc(C#N)cn1` [Example 150] here?
A: Its IC50 is 219 nM.

Q: `CNC(=O)c1ccc(-c2cnn3ccc(C(=O)N(c4ccc(Cl)cn4)C4CC4)cc23)cc1` [Example 124] was tested. Which IC50 did it give?
A: Its IC50 is 14 nM.

Q: Which IC50 does the source give for `CNC(=O)c1ccc(-c2cnn3ccc(C(=O)N(c4ccc(C(F)(F)F)cn4)C4CCC4)cc23)cc1` [Example 160] here?
A: Its IC50 is 8 nM.

Q: Which IC50 does the source give for `CNC(=O)c1ccc(-c2cnn3ccc(C(=O)N(c4ccc(C#N)c(OC)n4)C4CC4)cc23)cc1` [Example 149] here?
A: The IC50 was 4 nM.

Q: Which IC50 does the source give for `CCN(C(=O)c1ccn2ncc(-c3ccc(C(=O)NC)cc3)c2c1)c1ccc(C(F)(F)F)cn1` [Example 96] here?
A: Its IC50 is 3 nM.

Q: For `CNC(=O)c1ccc(-c2cnn3ccc(C(=O)N(c4ccc(C#N)cn4)C4CCC4)cc23)cc1` [Example 112], which IC50 is on record?
A: The IC50 was 72 nM.

Q: Which IC50 does the source give for `CNC(=O)c1ccc(-c2cnn3ccc(C(=O)N(NC)c4ccc(C#N)cc4)cc23)cn1` [Example 92] here?
A: Its IC50 is 57 nM.

Q: Which IC50 does the source give for `N#Cc1ccc(N(C(=O)c2ccn3ncc(-c4ccc(C(N)=O)cc4)c3c2)C2CC2)nc1` [Example 120] here?
A: Its IC50 is 40 nM.

Q: How did the IC50 turn out when `CNC(=O)c1ccc(-c2cnn3ccc(C(=O)N(c4ccc(C(F)(F)F)cn4)C(C)C)cc23)cc1` [Example 153] was run?
A: Its IC50 is 6 nM.

Q: With `N#Cc1ccc(N(C(=O)c2ccn3ncc(-c4ccc(C(=O)NC5CC5)cc4)c3c2)C2CC2)nc1` [Example 123] as the compound, how does the IC50 read?
A: The IC50 was 38 nM.

Q: `CC(C)NC(=O)c1ccc(-c2cnn3ccc(C(=O)N(c4ccc(C#N)cn4)C4CC4)cc23)cc1` [Example 121] was tested. Which IC50 did it give?
A: The IC50 was 860 nM.

Q: `CNC(=O)c1ccc(-c2cnn3ccc(C(=O)N(c4ccc(C#N)cn4)C(C)C)cc23)cc1` [Example 91] was tested. Which IC50 did it give?
A: The IC50 was 21 nM.

Q: Which IC50 does the source give for `N#Cc1ccc(N(C(=O)c2ccn3ncc(-c4ccc(C(=O)NC5COC5)cc4)c3c2)C2CC2)nc1` [Example 131] here?
A: The IC50 was 329 nM.
